Measurements published in US9790178B2, “Pyrrolidinyl urea, thiourea, guanidine and cyanoguanidine compounds as TrkA kinase inhibitors” (Array BioPharma Inc., priority 2012, dated 2017).

Assays:
p70S6K = target: T1, p70S6K (Homo sapiens, UniProt P23443); test: KinaseProfiler off-target kinase profiling; format: biochemical; settings: 10 μM, ATP near Km
T1 construct: purchased Millipore, Inc. (KinaseProfiler service)
How it was run: (§1)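 Each kinase in the full panel was exposed to the compound at 10 μM under ATP conditions approximating that enzyme's Km. Two replicates were run, and their mean activity versus control is what is reported.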

IRAK4 = target: T2, IRAK4 (Homo sapiens, UniProt Q9NWZ3); test: KinaseProfiler off-target kinase profiling; format: biochemical; settings: 10 μM, ATP near Km
T2 construct: purchased Millipore, Inc. (KinaseProfiler service)
How it was run: as §1

MAP4K2 = target: T3, MAP4K2 (Homo sapiens, UniProt Q12851); test: KinaseProfiler off-target kinase profiling; format: biochemical; settings: 10 μM, ATP near Km
T3 construct: purchased Millipore, Inc. (KinaseProfiler service)
How it was run: as §1

GSK3beta = target: T4, GSK3beta (Homo sapiens, UniProt P49841); test: KinaseProfiler off-target kinase profiling; format: biochemical; settings: 10 μM, ATP near Km
T4 construct: purchased Millipore, Inc. (KinaseProfiler service)
How it was run: as §1

Pim-3 = target: T5, Pim-3 (Homo sapiens, UniProt Q86V86); test: KinaseProfiler off-target kinase profiling; format: biochemical; settings: 10 μM, ATP near Km
T5 construct: purchased Millipore, Inc. (KinaseProfiler service)
How it was run: as §1

IKKbeta = target: T6, IKKbeta (Homo sapiens, UniProt O14920); test: KinaseProfiler off-target kinase profiling; format: biochemical; settings: 10 μM, ATP near Km
T6 construct: purchased Millipore, Inc. (KinaseProfiler service)
T6 sequence (O14920 whole entry): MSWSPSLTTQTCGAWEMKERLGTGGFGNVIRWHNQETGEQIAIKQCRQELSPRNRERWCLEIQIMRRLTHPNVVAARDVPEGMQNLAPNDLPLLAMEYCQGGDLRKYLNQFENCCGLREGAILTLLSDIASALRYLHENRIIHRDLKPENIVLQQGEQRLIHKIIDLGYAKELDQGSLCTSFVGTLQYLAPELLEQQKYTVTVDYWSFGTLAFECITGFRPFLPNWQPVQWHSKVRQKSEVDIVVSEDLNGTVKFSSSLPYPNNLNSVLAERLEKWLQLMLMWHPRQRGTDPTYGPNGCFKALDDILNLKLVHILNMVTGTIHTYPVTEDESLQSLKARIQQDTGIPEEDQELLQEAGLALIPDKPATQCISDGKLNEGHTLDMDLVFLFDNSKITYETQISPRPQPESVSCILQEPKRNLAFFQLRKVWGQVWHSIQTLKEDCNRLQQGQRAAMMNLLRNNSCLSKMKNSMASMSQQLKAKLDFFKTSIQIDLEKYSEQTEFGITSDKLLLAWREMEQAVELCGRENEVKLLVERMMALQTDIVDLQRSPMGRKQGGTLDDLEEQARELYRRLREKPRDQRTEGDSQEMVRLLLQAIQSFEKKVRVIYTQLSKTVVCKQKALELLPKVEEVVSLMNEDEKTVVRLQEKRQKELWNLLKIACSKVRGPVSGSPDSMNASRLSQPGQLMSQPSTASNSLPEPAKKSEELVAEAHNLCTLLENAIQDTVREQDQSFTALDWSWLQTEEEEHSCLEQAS
How it was run: as §1

TAK1 = target: T7, TAK1 (Homo sapiens, UniProt O43318); test: KinaseProfiler off-target kinase profiling; format: biochemical; settings: 10 μM, ATP near Km
T7 construct: purchased Millipore, Inc. (KinaseProfiler service)
T7 sequence (O43318 1-303 limits assumed): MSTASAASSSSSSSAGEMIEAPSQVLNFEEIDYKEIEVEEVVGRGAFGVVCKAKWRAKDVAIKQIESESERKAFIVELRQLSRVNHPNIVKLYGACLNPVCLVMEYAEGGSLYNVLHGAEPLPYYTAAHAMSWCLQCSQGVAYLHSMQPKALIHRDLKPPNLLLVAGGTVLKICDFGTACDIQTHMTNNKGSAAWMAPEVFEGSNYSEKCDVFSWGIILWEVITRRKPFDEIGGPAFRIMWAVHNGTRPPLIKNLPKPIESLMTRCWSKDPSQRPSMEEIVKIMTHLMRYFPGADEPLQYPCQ
How it was run: as §1

PAK3 = target: T8, PAK3 (Homo sapiens, UniProt O75914); test: KinaseProfiler off-target kinase profiling; format: biochemical; settings: 10 μM, ATP near Km
T8 construct: purchased Millipore, Inc. (KinaseProfiler service)
How it was run: as §1

Txk = target: T9, Txk (Homo sapiens, UniProt P42681); test: KinaseProfiler off-target kinase profiling; format: biochemical; settings: 10 μM, ATP near Km
T9 construct: purchased Millipore, Inc. (KinaseProfiler service)
T9 sequence (P42681 whole entry): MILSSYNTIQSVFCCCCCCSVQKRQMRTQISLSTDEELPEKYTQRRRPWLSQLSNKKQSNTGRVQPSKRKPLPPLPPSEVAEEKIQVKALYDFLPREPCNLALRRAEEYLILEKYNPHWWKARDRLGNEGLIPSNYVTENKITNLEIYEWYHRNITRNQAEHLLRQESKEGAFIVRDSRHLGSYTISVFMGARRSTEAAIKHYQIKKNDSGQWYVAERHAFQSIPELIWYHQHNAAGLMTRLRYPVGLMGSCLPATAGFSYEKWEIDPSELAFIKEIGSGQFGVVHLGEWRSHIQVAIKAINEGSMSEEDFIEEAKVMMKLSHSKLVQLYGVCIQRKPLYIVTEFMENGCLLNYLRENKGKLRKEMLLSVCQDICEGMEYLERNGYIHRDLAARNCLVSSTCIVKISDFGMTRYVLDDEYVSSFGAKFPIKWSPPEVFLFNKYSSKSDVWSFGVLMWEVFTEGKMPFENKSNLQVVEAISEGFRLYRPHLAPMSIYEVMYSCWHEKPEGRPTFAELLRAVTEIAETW
How it was run: as §1

CLK2 = target: T10, CLK2 (Homo sapiens, UniProt P49760); test: KinaseProfiler off-target kinase profiling; format: biochemical; settings: 10 μM, ATP near Km
T10 construct: purchased Millipore, Inc. (KinaseProfiler service)
How it was run: as §1

Met = target: T11, Met (Homo sapiens, UniProt P08581); test: KinaseProfiler off-target kinase profiling; format: biochemical; settings: 10 μM, ATP near Km
T11 construct: purchased Millipore, Inc. (KinaseProfiler service)
How it was run: as §1

IR Activated = target: T12, IR Activated (Homo sapiens, UniProt P06213); test: KinaseProfiler off-target kinase profiling; format: biochemical; settings: 10 μM, ATP near Km
T12 construct: purchased Millipore, Inc. (KinaseProfiler service)
T12 sequence (P06213 1005-1310 limits assumed): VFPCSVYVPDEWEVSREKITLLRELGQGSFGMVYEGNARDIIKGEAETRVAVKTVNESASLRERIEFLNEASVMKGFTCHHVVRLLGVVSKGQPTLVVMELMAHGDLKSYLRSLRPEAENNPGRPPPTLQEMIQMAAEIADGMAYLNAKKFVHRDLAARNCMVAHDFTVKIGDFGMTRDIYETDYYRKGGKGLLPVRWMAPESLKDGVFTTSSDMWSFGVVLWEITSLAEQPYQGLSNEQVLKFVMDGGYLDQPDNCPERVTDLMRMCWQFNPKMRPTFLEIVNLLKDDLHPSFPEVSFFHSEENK
How it was run: as §1

MEK1 = target: T13, MEK1 (Homo sapiens, UniProt Q02750); test: KinaseProfiler off-target kinase profiling; format: biochemical; settings: 10 μM, ATP near Km
T13 construct: purchased Millipore, Inc. (KinaseProfiler service)
How it was run: as §1

CAMK2b = target: T14, CAMK2b (Homo sapiens, UniProt Q13554); test: KinaseProfiler off-target kinase profiling; format: biochemical; settings: 10 μM, ATP near Km
T14 construct: purchased Millipore, Inc. (KinaseProfiler service)
How it was run: as §1

CSK = target: T15, CSK (Homo sapiens, UniProt P41240); test: KinaseProfiler off-target kinase profiling; format: biochemical; settings: 10 μM, ATP near Km
T15 construct: purchased Millipore, Inc. (KinaseProfiler service)
How it was run: as §1

CLK3 = target: T16, CLK3 (Homo sapiens, UniProt P49761); test: KinaseProfiler off-target kinase profiling; format: biochemical; settings: 10 μM, ATP near Km
T16 construct: purchased Millipore, Inc. (KinaseProfiler service)
How it was run: as §1

PASK = target: T17, PASK (Homo sapiens, UniProt Q96RG2); test: KinaseProfiler off-target kinase profiling; format: biochemical; settings: 10 μM, ATP near Km
T17 construct: purchased Millipore, Inc. (KinaseProfiler service)
How it was run: as §1

PrKX = target: T18, PrKX (Homo sapiens, UniProt P51817); test: KinaseProfiler off-target kinase profiling; format: biochemical; settings: 10 μM, ATP near Km
T18 construct: purchased Millipore (KinaseProfiler service)
T18 sequence (P51817 whole entry): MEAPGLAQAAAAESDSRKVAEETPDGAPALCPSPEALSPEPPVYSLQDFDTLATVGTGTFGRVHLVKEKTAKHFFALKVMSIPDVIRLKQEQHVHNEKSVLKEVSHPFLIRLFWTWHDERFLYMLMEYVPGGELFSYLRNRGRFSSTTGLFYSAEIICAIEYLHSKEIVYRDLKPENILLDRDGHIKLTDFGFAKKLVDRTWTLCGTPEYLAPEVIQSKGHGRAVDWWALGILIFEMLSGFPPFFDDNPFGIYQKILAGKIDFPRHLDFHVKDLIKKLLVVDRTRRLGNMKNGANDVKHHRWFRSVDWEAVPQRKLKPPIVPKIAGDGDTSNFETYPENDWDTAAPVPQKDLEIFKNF
How it was run: as §1

mTOR/FKBP12 = target: T19, mTOR/FKBP12 (Homo sapiens, UniProt P42345); test: KinaseProfiler off-target kinase profiling; format: biochemical; settings: 10 μM, ATP near Km
T19 construct: purchased Millipore, Inc. (KinaseProfiler service)
How it was run: as §1

PDK1 = target: T20, PDK1 (Homo sapiens, UniProt O15530); test: KinaseProfiler off-target kinase profiling; format: biochemical; settings: 10 μM, ATP near Km
T20 construct: purchased Millipore, Inc. (KinaseProfiler service)
How it was run: as §1

CDK2/cyclinA = target: T21, CDK2/cyclinA (Homo sapiens, UniProt P24941); test: KinaseProfiler off-target kinase profiling; format: biochemical; settings: 10 μM, ATP near Km
T21 construct: purchased Millipore, Inc. (KinaseProfiler service)
How it was run: as §1

CDK1/cyclinB = target: T22, CDK1/cyclinB (Homo sapiens, UniProt P06493); test: KinaseProfiler off-target kinase profiling; format: biochemical; settings: 10 μM, ATP near Km
T22 construct: purchased Millipore, Inc. (KinaseProfiler service)
T22 sequence (P06493 whole entry): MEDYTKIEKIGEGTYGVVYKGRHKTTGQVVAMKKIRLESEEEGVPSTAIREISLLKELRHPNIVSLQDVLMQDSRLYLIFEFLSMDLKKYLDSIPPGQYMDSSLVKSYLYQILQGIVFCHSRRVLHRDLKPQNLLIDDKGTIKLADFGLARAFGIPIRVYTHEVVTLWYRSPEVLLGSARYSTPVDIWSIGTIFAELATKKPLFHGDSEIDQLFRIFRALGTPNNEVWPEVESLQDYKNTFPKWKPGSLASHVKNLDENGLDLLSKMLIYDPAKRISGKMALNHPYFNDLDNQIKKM
T22 sequence (P14635 whole entry partner): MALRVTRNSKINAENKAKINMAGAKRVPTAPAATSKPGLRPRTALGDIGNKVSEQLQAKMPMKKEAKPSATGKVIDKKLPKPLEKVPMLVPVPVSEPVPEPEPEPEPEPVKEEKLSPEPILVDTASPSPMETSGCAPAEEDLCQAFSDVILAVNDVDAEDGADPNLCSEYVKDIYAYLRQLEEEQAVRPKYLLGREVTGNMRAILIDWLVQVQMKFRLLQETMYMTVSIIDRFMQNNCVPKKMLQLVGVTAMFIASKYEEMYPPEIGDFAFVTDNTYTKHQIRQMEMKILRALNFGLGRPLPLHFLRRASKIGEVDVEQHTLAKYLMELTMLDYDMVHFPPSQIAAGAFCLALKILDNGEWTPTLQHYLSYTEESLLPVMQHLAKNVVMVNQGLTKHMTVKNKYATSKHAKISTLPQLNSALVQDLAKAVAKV
How it was run: as §1

GRK6 = target: T23, GRK6 (Homo sapiens, UniProt P43250); test: KinaseProfiler off-target kinase profiling; format: biochemical; settings: 10 μM, ATP near Km
T23 construct: purchased Millipore, Inc. (KinaseProfiler service)
T23 sequence (P43250 whole entry): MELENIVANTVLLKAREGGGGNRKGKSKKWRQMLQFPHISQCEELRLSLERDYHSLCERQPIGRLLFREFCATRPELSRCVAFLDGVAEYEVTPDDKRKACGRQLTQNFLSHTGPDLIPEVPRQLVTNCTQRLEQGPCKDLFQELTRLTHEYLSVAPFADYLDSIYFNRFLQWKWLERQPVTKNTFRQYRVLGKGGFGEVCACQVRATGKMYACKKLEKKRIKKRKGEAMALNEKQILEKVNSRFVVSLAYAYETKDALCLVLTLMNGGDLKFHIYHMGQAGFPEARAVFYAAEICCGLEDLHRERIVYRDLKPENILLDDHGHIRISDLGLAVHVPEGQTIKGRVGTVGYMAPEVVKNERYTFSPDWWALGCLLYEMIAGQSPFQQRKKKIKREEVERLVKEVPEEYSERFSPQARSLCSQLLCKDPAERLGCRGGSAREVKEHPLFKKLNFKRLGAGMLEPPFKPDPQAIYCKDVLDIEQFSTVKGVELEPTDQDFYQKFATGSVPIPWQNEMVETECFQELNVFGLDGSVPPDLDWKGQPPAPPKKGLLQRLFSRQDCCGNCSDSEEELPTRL
How it was run: as §1

KDR = target: T24, KDR (Homo sapiens, UniProt P35968); test: KinaseProfiler off-target kinase profiling; format: biochemical; settings: 10 μM, ATP near Km
T24 construct: purchased Millipore, Inc. (KinaseProfiler service)
How it was run: as §1

Haspin = target: T25, Haspin (Homo sapiens, UniProt Q8TF76); test: KinaseProfiler off-target kinase profiling; format: biochemical; settings: 10 μM, ATP near Km
T25 construct: purchased Millipore, Inc. (KinaseProfiler service)
T25 sequence (Q8TF76 whole entry): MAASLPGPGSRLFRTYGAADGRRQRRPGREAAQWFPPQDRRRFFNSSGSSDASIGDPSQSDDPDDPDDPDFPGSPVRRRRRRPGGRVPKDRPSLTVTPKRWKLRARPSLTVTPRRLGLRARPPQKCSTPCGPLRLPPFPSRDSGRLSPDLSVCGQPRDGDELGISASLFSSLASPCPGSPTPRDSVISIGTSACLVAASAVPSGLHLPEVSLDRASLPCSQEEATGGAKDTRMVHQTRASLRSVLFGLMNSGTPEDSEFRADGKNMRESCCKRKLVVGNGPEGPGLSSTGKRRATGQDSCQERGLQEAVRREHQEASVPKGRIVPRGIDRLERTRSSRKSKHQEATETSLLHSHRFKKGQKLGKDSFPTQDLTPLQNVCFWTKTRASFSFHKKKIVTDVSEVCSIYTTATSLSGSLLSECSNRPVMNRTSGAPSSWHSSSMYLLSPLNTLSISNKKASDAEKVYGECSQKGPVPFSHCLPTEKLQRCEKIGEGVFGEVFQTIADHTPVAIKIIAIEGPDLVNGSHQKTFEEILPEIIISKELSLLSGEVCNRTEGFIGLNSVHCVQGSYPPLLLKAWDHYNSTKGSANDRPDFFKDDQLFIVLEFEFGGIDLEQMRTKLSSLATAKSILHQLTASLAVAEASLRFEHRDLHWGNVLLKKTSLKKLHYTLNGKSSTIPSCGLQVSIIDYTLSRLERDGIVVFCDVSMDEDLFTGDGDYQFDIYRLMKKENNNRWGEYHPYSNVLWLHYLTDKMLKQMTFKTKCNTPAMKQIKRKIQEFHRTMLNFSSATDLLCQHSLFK
How it was run: as §1

MKNK2 = target: T26, MKNK2 (Homo sapiens, UniProt Q9HBH9); test: KinaseProfiler off-target kinase profiling; format: biochemical; settings: 10 μM, ATP near Km
T26 construct: purchased Millipore, Inc. (KinaseProfiler service)
How it was run: as §1

RIPK2 = target: T27, RIPK2 (Homo sapiens, UniProt O43353); test: KinaseProfiler off-target kinase profiling; format: biochemical; settings: 10 μM, ATP near Km
T27 construct: purchased Millipore (KinaseProfiler service)
T27 sequence (O43353 whole entry): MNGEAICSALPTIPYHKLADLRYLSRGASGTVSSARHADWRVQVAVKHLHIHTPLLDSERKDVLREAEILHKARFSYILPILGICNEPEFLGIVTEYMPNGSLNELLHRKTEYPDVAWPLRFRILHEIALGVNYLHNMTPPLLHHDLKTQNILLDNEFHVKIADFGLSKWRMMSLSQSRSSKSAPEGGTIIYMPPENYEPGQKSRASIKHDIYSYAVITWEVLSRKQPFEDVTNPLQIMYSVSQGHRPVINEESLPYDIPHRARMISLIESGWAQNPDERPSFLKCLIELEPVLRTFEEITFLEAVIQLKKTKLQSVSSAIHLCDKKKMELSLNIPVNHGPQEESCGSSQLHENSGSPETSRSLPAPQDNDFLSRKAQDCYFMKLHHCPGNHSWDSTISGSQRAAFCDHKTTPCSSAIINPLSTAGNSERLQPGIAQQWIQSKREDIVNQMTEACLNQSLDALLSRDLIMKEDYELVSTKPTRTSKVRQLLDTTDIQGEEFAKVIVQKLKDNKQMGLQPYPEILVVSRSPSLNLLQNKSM
How it was run: as §1

[1] = target: T28, His-tagged recombinant human TrkA (Homo sapiens, UniProt P04629); test: TrkA LanthaScreen Eu Kinase Binding Assay; settings: averaged IC50 values; read-out: TrkA enzyme IC50
T28 construct: 6HIS tagged cytoplasmic domain from Invitrogen, Catalog No. PV3144; purchased Invitrogen PV3144
Protocol: TrkA binding activity was determined in a TrkA LanthaScreen™ Eu Kinase Binding Assay. 5 nM His-tagged recombinant human TrkA (6HIS tagged cytoplasmic domain from Invitrogen, Catalog No. PV3144) was incubated with 4 nM Alexa-Fluor® Tracer 236 (Invitrogen Cat. No. PV5592), 2 nM biotinylated anti-His (Invitrogen Cat. No. PV6090), and 2 nM europium-labeled Streptavidin (Invitrogen Cat. No. PV5899), in buffer (25 mM MOPS, pH 7.5, 5 mM MgCl2, 0.005% Triton X-100). Three fold serial dilutions of compounds of the invention in DMSO were added to a final percentage of 2% DMSO. After 60-minute incubation at 22° C., the reaction was measured using the EnVision mutlimode plate reader (PerkinElmer) via TR-FRET dual wavelength detection at […]. The percent of control was calculated using a ratiometric emission factor. The IC50 values were determined by fitting a four parameter model to the percent of control data.
Table A provides averaged IC50 values for compounds of the invention when tested in the assay of Example A, where A represents an averaged IC50 value <100 nM; and B represents an averaged IC50 value from 100 to 1,000 nM.

- Avg. POC (p70S6K): 112 POC
- Avg. POC (IRAK4): 124 POC
- Avg. POC (MAP4K2): 112 POC
- Avg. POC (GSK3beta): 129 POC
- Avg. POC (Pim-3): 98 POC
- Avg. POC (IKKbeta): 107.5 POC
- Avg. POC (TAK1): 97 POC
- Avg. POC (PAK3): 219.5 POC
- Avg. POC (Txk): 130 POC
- Avg. POC (CLK2): 106.5 POC
- Avg. POC (Met): 110 POC
- Avg. POC (IR Activated): 108 POC
- Avg. POC (MEK1): 111 POC
- Avg. POC (CAMK2b): 102 POC
- Avg. POC (CSK): 104.5 POC
- Avg. POC (CLK3): 107 POC
- Avg. POC (PASK): 111 POC
- Avg. POC (PrKX): 120.5 POC
- Avg. POC (mTOR/FKBP12): 110.5 POC
- Avg. POC (PDK1): 119.5 POC
- Avg. POC (CDK2/cyclinA): 112 POC
- Avg. POC (CDK1/cyclinB): 99 POC
- Avg. POC (GRK6): 110 POC
- Avg. POC (KDR): 107 POC
- Avg. POC (Haspin): 93.5 POC
- Avg. POC (MKNK2): 103 POC
- Avg. POC (RIPK2): 97.5 POC
- IC50 [1]: < 100 nM
Compound: COCCN1C[C@@H](NC(=O)Nc2c(-c3ccccc3)nc3c(C)nccn23)[C@H](c2ccc(F)c(F)c2)C1 [Example 20, 1-((3S,4R)-4-(3,4-difluorophenyl)-1-(2-methoxyethyl)pyrrolidin-3-yl)-3-(8-methyl-2-phenylimidazo[1,2-a]pyrazin-3-yl)urea]
